From US20130184272A1, “DIABETES THERAPEUTIC AGENT” (TAKEDA PHARMACEUTICAL COMPANY LIMITED, priority 2010, published 2013)

Key:
[1] = tested on: Mouse-derived myoblast line C2C12 cell; assay: Cell differentiation promoting activity in myoblast (creatine kinase activity); assay type: cell-based; settings: Mus musculus, C2C12, 48 h; compound at 0.01 μM (**); 2 days; without compound = 100%; read-out: creatine kinase activating action (%)
Method: • (1) Mouse-derived myoblast line C2C12 cell (Dainippon Pharmaceutical Co., Ltd.) was subcultured in a high glucose Eagle's modified Dulbecco's medium (GIBCO) added with 10% calf fetal bovine serum (GIBCO), 100 unit/mL penicillin and 100 μg/mL streptomycin (hereinafter to be referred to as a growth medium), plated at 5000 cells/cm^2 and cultured at 37° C., under 5% CO2. • (2) When the cells reached subconfluence of not less than 90%, the medium was exchanged with high glucose Eagle's modified Dulbecco's medium (GIBCO) added with (i) 2% horse serum (GIBCO) and (ii) penicillin, streptomycin and a test compound (hereinafter to be referred to as a differentiation medium) and the cells were cultured for 2 days. To the control group was added DMSO solution instead of the test compound. • (3) The cells were washed with PBS, 0.5% NP-40 solution was added, and the cells were lysed by freeze-thawing. The cell extract was centrifuged and the creatine kinase activity in the supernatant was measured as an index of muscle differentiation. The creatine kinase activity was measured using CPKII Test Wako (Wako Pure Chemical Industries, Ltd.) according to the manual of the kit.
The numerical values in Table 1 show creatine kinase activity of the compound addition group when the creatine kinase activity without addition of the compound is 100%, and * means measurement with addition of the compound at 10 μM, ** at 0.01 μM, and others at 1 μM.

C2C12 cell = assay: Sugar metabolism promoting activity in muscle cell (lactic acid production); assay type: cell-based, Mouse; settings: Mus musculus, 48 h; compound 1 μM, 2 days, C2C12 myotubes; without drug = 100%; read-out: lactic acid production promoting action (%)
Method: • (1) In the same manner as in Example 1, C2C12 cell was cultured in a growth medium. After reaching subconfluence of not less than 90%, the medium was exchanged with a differentiation medium and the cells were cultured for about 7 days while exchanging the medium every 2 or 3 days until the cells differentiated to form a myotube. • (2) After confirmation of myotube formation under a microscope, the test compound (1 μM) was added to a differentiation medium and cultured for 2 days. The cells were washed with Krebs-Ringer HEPES phosphate buffer (10 mM HEPES, pH 7.4, 131 mM NaCl, 4.7 mM KCl, 2.5 mM CaCl2—2H2O, 1.2 mM MgSO4—7H2O, 1.2 mM KH2PO4), the medium was exchanged with Krebs-Ringer HEPES phosphate buffer added with 5 mM glucose, 0.2% fatty acid-free bovine serum albumin, and cultured at 37° C. for 4 hr. • (3) The lactic acid concentration of the culture supernatant was measured using Detarminer LA kit (Kyowa Medex Co., Ltd.).
The numerical values in Table 2 show the concentration of the compound addition group with the concentration of lactic acid without addition of a drug as 100%.

C2C12 cells [2] = assay: Sugar uptake promoting activity in muscle cell (2DG uptake); assay type: cell-based, Mouse; settings: for 2DG uptake (%): control group (DMSO) = 100%
Method: • (1) In the same manner as in Example 1, C2C12 cells were cultured in a growth medium to not less than 90% confluence. • (2) The medium was exchanged with a differentiation medium, and the cells were cultured until observation of myotube formation under a microscope. • (3) The compounds of Reference Example 1 and Reference Example 7 were added, and the cells were cultured overnight. • (4) The cells were washed with krebs-ringer HEPES phosphate buffer added with 1% bovine serum albumin, cultured for 30 min in this buffer, 2-deoxyglucose (2DG) (0.1 mM, 0.8 μCi/250 μL) was added and the cells were cultured at 37° C. for 75 min. • (5) The cells were washed 4 times with PBS, MicroScint-20 (125 μL/well, PerkinElmer) was added and the radioactivity was measured by a scintillation counter. DMSO (dimethyl sulfoxide) alone was added to the control group. The numerical values of 2DG uptake in Table 10 are relative values to the control group as 100%.
The data in Table 10 show mean±standard deviation at n=6 (n is the number of samples).

Female KKA^y mice = assay: Anti-diabetes action and dyslipidemia improving effect in KKA^y mouse; assay type: in vivo; settings: 2 weeks, control group = 100
Method: Female KKA^y mice (12-week-old, CLEA Japan, Inc.) were bred while allowing free ingestion of both feed and water. The mice were bred for acclimation with powder CE-2 (CLEA Japan, Inc.) from 2 weeks before administration of the compound. The body weight and plasma markers were measured and, at 14 weeks of age, they were divided such that the measured values were uniform with those of the control group. The compound of Reference Example 1, 2, 7, 8, 9 or 22 was administered for 2 weeks in a mixed feed (0.01-0.0001%). On the last day, plasma levels of glucose, insulin, total cholesterol and neutral lipid were measured.

C2C12 cells [3] = assay: ATP content in muscle cell; assay type: cell-based, Mouse; settings: for ATP content: two days, control group 100
Method: (§1) • (1) In the same manner as in Example 1, C2C12 cells were cultured in a growth medium to not less than 90% confluence. • (2) The medium was exchanged with a differentiation medium, and the cells were cultured until observation of myotube formation under a microscope. • (3) The compounds of Reference Example 1 and Reference Example 7 were added, and the cells were cultured for two days. • (4) ATP content was measured using Cell Titer-Glo™ Luminescence cell viable assay (Promega) and succinic acid dehydrogenase activity of mitochondria was measured using Cell Counting Kit-8 (Dojin). The data of Table 17 show mean±standard deviation at n=3-4 (n is the number of samples).

[4] = tested on: succinic acid dehydrogenase activity of mitochondria; assay: Succinic acid dehydrogenase activity in muscle cell; assay type: cell-based, Mouse; settings: for succinic acid dehydrogenase activity: two days, control group 100
Method: as §1

Compound	activity at 0.01 µM [1]	activity at 1 µM (C2C12 cell)	sugar uptake of C2C12 cell differentiated into muscle cell (in words) (C2C12 cells [2])	2DG uptake (%) (C2C12 cells [2]; compound 0.1 nM overnight)	2DG uptake (%) (C2C12 cells [2]; compound 1 nM overnight)	2DG uptake (%) (C2C12 cells [2]; compound 10 nM overnight)	2DG uptake (%) (C2C12 cells [2]; compound 100 nM overnight)	ATP content of muscle cells (in words) (C2C12 cells [3])	ATP content (C2C12 cells [3]; compound 1 nM)	succinic acid dehydrogenase activity (in words) [4]	succinic acid dehydrogenase activity ([4]; compound 1 nM)	also measured
Cc1ncccc1Oc1sc(C(N)=O)c2c1-c1c(cnn1C)CC2 [Ref. Ex. 1, 1-methyl-8-[(2-methylpyridin-3-yl)oxy]-4,5-dihydro-1H-thieno[3,4-g]indazole-6-carboxamide]	175%	247%	promoted	89%	150%	166%	187%	did not decrease	112 ± 1	increased	124 ± 3	plasma glucose (%) (Female KKA^y mice; mixed feed dose 0.0001 %): 53.2 ± 19.1%; plasma insulin (%) (Female KKA^y mice; mixed feed dose 0.0001 %): 27.3 ± 19.5%; plasma neutral lipid (%) (Female KKA^y mice; mixed feed dose 0.0001 %): 38.9 ± 11.0%; plasma total cholesterol (%) (Female KKA^y mice; mixed feed dose 0.0001 %): 61.6 ± 10.8%; ATP content (C2C12 cells [3]; compound 0.01 nM): 108 ± 1; ATP content (C2C12 cells [3]; compound 0.1 nM): 107 ± 0; succinic acid dehydrogenase activity ([4]; compound 0.01 nM): 98 ± 10; succinic acid dehydrogenase activity ([4]; compound 0.1 nM): 113 ± 5
Cn1ncc2c1-c1c(Oc3cccnc3)sc(C(N)=O)c1CC2 [Ref. Ex. 7, 1-methyl-8-(pyridin-3-yloxy)-4,5-dihydro-1H-thieno[3,4-g]indazole-6-carboxamide]	183%	254%	promoted	69%	100%	137%	181%	did not decrease	106 ± 2	increased	111 ± 3	plasma glucose (%) (Female KKA^y mice; mixed feed dose 0.01 %): 40.3 ± 4.5%; plasma insulin (%) (Female KKA^y mice; mixed feed dose 0.01 %): 2.9 ± 1.7%; plasma neutral lipid (%) (Female KKA^y mice; mixed feed dose 0.01 %): 33.9 ± 8.6%; plasma total cholesterol (%) (Female KKA^y mice; mixed feed dose 0.01 %): 64.8 ± 12.0%; ATP content (C2C12 cells [3]; compound 10 nM): 111 ± 3; ATP content (C2C12 cells [3]; compound 100 nM): 103 ± 4; succinic acid dehydrogenase activity ([4]; compound 10 nM): 120 ± 4; succinic acid dehydrogenase activity ([4]; compound 100 nM): 131 ± 7
